Data published in PMC7721636 (Metabolic Engineering Communications, 2020).

Biological target: T1, Prk (Synechocystis sp. PCC 6803, UniProt P37101)
T1 sequence (P37101 1-332): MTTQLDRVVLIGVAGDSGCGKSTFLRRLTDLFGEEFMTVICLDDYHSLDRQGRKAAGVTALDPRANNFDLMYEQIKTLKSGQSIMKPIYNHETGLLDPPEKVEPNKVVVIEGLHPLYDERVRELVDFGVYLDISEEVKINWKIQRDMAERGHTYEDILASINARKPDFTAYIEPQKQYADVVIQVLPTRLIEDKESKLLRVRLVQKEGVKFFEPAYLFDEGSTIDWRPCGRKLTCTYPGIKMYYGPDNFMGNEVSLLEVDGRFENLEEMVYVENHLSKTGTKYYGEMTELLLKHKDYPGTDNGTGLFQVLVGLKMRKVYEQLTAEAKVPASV
Test: coupled pyruvate kinase/lactate dehydrogenase assay, NADH at […] nm
Type: biochemical

Ki: 1.45 ± 0.13 mM
Structure (SMILES): O=C(O)C[C@H](C(=O)O)[C@@H](O)C(=O)O [isocitrate]
